PubChem BioAssay (NCI)
Values joined by “and” are separate entries in the source; they are usually repeats but may differ in a detail not shown here. Identical values can stand only once.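 Dose response: 5 concentrations. Exposure: 48 h. Format: 96-well plates. Endpoint: linear interpolation; highest concentration if not reached. Abbreviation: GI50, concentration required for 50% inhibition of growth. Definition used: TGI = concentration required for complete inhibition of growth.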

Columns and labels:
Experiment in all cases: NCI tumour cell line growth inhibition, 48 h
[1] = system: UACC-62 melanoma
[2] = system: SK-MEL-28 melanoma
[3] = system: SK-MEL-5 melanoma
[4] = system: PC-3 prostate
[5] = system: NCI/ADR-RES ovarian
[6] = system: SF-539 CNS
[7] = system: COLO 205 colon
[8] = system: UO-31 renal
[9] = system: OVCAR-4 ovarian
[10] = system: HOP-62 NSCLC

Compound	GI50 [1] [µM]	TGI [1] [µM]	GI50 [2] [µM]	TGI [2] [µM]	GI50 [3] [µM]	TGI [3]	GI50 [4] [µM]	TGI [4] [µM]	GI50 [5] [µM]	TGI [5] [µM]	GI50 [6] [µM]	TGI [6]	GI50 [7] [µM]	TGI [7] [µM]	GI50 [8] [µM]	TGI [8] [µM]	GI50 [9] [µM]	TGI [9]	GI50 [10] [µM]	TGI [10]
C=C1C(=O)O[C@H]2[C@H]1CC/C(COC(=O)C(=O)c1c[nH]c3ccc(Cl)cc13)=C\CC[C@@]1(C)O[C@@H]21	1.28	3.54	1.88	3.92	1.86	3.41 µM	1.76	3.57	1.94	4.94	1.74	3.32 µM	2.12	4.58	1.22	2.53	2.34	7.03 µM	1.63	3.66 µM
O=C(Nc1cc(C(F)(F)F)cc(C(F)(F)F)c1)Nc1ccc(OCc2nnc(-c3ccc(Cl)cc3)o2)c(F)c1	1.79	11.6	3.3	15.1	1.51	2.96 µM	0.668	11.2	1.85	7.91	2.83	8.47 µM	1.64	3.15	1.86	8.75	2.31	10 µM	2.11	6.12 µM
COC(=O)c1ccc(NC(N)=NCC(C)(C)COc2ccc(C(F)(F)F)cc2)nc1	1.66	3.1	1.64	3.08	–	–	1.38	2.75	1.68	3.34	1.71	3.13 µM	1.63	3.23	1.35	2.7	–	–	1.67	3.2 µM
COC(=O)C1=CO[C@@H](OC2OC(CO)C(O)C(O)C2O)[C@@H]2[C@H](C)[C@@H](O)[C@@H](O)[C@]12O (some centres not stated)	–	> 100	–	> 100	–	> 100 µM	–	> 100	–	> 100	–	> 100 µM	–	> 100	–	> 100	–	–	–	> 100 µM
Cc1[nH]c(=O)nc(N/N=C/c2ccc(Cl)cc2)c1C(=O)Nc1ccc(Cl)cc1	–	> 100	–	> 86.1	–	48.4 µM	–	> 100	–	> 100	–	67.6 µM	–	> 88.1	–	> 100	–	22.4 µM	–	26 µM
C=C1[C@@H](O)C[C@H]2C(C)(C)C[C@H](Cl)C[C@]2(C)[C@H]1C[C@H](O)[C@H]1CC(=O)NC1=O	0.0194	0.15	0.0161	0.127	< 0.0134	0.0363 µM	0.0174	0.264	< 0.0447	0.508	< 0.0109	0.0597 µM	< 0.01	0.0564	0.0185	0.212	0.0174	0.391 µM	0.0116	0.0961 µM
Cc1ccc(S(=O)(=O)NNC(C[N+](=O)[O-])c2ccccc2)cc1 (configuration not stated)	–	85.3	–	–	–	36.7 µM	–	> 100	–	> 100	–	81.5 µM	–	30.8	–	48.6	–	32.1 µM	–	74.5 µM
COc1cc2c(c(OC)c1OC)C(=O)c1c-2n(CCCN=[N+]=[N-])c(=O)c2cc([N+](=O)[O-])ccc12	39.7	> 100	> 100	> 100	> 100	> 100 µM	–	–	53	> 100	39.2	> 100 µM	> 100	> 100	69.7	> 100	46.8	> 100 µM	30.7	> 100 µM
CNC12C3C4C1C1C2C3C41C(=O)N[C@H](C(=O)N(C)[C@H](C[C@@H](OC(C)=O)c1nc(C(=O)N[C@@H](Cc2ccccc2)C[C@H](C)C(=O)OC)cs1)C(C)C)C1CC1 (some centres not stated)	0.0921	2.98	2.13	> 15	0.155	1.41 µM	0.391	> 15	> 15	> 15	0.322	0.93 µM	0.493	2.31	2.25	> 15	1.1	> 15 µM	0.501	> 15 µM
Clc1ccc(-c2nc(C(Cl)Cl)nc3cc(-c4ccccc4)nn23)cc1	–	–	–	–	> 50	> 50 µM	1.74	> 50	1.27	> 50	2.34	> 50 µM	–	–	2.04	> 50	0.917	3.63 µM	1.22	4.57 µM
COc1cccc2c1C(=O)c1c(O)c3c(c(O)c1C2=O)C[C@@](O)(C(C)=O)C[C@@H]3OC1CC(O)C(O)C(C)O1 (some centres not stated)	–	–	–	25	–	5.06 µM and 2.78 µM	–	31.9	0.000214	–	–	9.15 µM and 10.2 µM	–	27	–	10	–	9.94 µM and 16.9 µM	–	7.09 µM and 1.78 µM
Cc1ccc(N(/C=C/C(=O)C(F)(F)F)CC(=O)c2ccc(Cl)c(Cl)c2)cc1	5.57	19	11.2	23.2	5.64	19.6 µM	7.06	20	2.76	13.4	2.77	17 µM	10	21.6	5.77	19.1	–	–	12.3	24.8 µM
Cn1ccc2c3c(=O)cc[nH]c3ccc21	> 100	> 100	12.7	> 100	> 100	> 100 µM	> 100	> 100	> 100	> 100	> 100	> 100 µM	> 100	> 100	> 100	> 100	> 100	> 100 µM	> 100	> 100 µM
COc1ccc2c(c1)C(=O)c1c-2n(CCCN=[N+]=[N-])c(=O)c2cc(N)ccc12	> 100	> 100	–	> 100	> 100	> 100 µM	> 100	> 100	> 100	> 100	> 100	> 100 µM	> 100	> 100	> 100	> 100	17.8	> 100 µM	> 100	> 100 µM
Oc1cc2c(cc1C(c1ccc3c(c1)OCO3)N1CCN(C(c3ccc4c(c3)OCO4)c3cc4c(cc3O)OCO4)CC1)OCO2 (configuration not stated)	–	27.5	–	8.46	–	37.9 µM	–	> 100	–	55.4	–	33.9 µM	–	90.8	–	29.3	–	16.5 µM	–	64.7 µM
